Data taken from patent US8946142B2, “Beta-arrestin effectors and compositions and methods of use thereof” (Trevena, Inc., priority 2012, dated 2015).
Where a SMILES comes first, the peptide text is derived from it. [ ]: non-standard residue; d: D form. Ac6c = NC1(C(=O)O)CCCCC1; Ac5c = NC1(C(=O)O)CCCC1; Sar = CNCC(=O)O

Experiments:
Type in all cases: cell-based
human AT1R [1] = biological target: T1, human AT1R (Homo sapiens, UniProt P30556); experiment: beta-arrestin2 recruitment assay (PathHunter), human AT1R; settings: for Emax: 1 h, read-out: Span (relative to hAngII)
T1 sequence (P30556 1-359): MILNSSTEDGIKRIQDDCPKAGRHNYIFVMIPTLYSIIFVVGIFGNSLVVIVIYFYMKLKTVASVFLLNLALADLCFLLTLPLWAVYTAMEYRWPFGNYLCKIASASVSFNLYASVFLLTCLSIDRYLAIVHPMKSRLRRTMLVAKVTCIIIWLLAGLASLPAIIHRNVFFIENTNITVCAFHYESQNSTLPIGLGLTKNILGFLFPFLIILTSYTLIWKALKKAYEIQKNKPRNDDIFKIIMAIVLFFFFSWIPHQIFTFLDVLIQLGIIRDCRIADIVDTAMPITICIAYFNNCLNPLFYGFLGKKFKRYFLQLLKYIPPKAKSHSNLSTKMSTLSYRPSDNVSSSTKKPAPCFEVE
Outline: (§1)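 Luminescence, in arbitrary units, read after 60 min room-temperature detection reflects β-arrestin-2 recruitment to human AT1R or rat AT1aR stably expressed in PathHunter HEK293 clones. Cells were exposed to peptides from 1 pM to 100 μM final in HEPES-buffered HBSS for 60 min at 37 °C.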

rat AT1aR [2] = biological target: T2, rat AT1aR (Rattus norvegicus, UniProt P25095); experiment: beta-arrestin2 recruitment assay (PathHunter), rat AT1aR; settings: for Emax: 1 h, read-out: Span (relative to hAngII)
T2 sequence (P25095 1-359): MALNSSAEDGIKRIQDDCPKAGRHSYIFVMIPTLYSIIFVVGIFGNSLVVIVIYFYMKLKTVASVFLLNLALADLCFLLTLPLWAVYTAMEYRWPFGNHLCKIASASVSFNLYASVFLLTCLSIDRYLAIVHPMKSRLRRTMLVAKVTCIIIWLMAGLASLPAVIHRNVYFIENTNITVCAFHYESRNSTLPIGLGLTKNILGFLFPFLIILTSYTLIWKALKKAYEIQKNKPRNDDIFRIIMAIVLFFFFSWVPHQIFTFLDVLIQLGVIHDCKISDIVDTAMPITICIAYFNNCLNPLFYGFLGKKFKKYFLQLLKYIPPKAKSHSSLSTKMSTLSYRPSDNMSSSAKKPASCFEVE
Outline: as §1

human AT1R [3] = biological target: T1, human AT1R; experiment: IP1 accumulation assay (IP1 G-protein assay), human AT1R; settings: for Emax: read-out: Span (relative to hAngII)
rat AT1aR [4] = biological target: T2, rat AT1aR; experiment: IP1 accumulation assay (IP1 G-protein assay), rat AT1aR; settings: for Emax: read-out: Span (relative to hAngII)

Row | SMILES | Emax (human AT1R [1]) [%] | EC50 (human AT1R [1]; read-out: EC50) [nM] | EC50 (human AT1R [1]; read-out: pEC50 (converted)) [nM] | Emax (rat AT1aR [2]) [%] | EC50 (rat AT1aR [2]; read-out: EC50) [nM] | EC50 (rat AT1aR [2]; read-out: pEC50 (converted)) [nM] | EC50 (human AT1R [3]; read-out: EC50) [nM] | Emax (human AT1R [3]) [%] | EC50 (human AT1R [3]; read-out: pEC50 (converted)) [nM] | EC50 (rat AT1aR [4]; read-out: EC50) [nM] | Emax (rat AT1aR [4]) [%] | EC50 (rat AT1aR [4]; read-out: pEC50 (converted)) [nM] | EC50 (nM) (human AT1R [3]) | pEC50 (human AT1R [3]) | EC50 (nM) (rat AT1aR [4]) | pEC50 (rat AT1aR [4])
1 | CNCC(=O)N[C@@H](CCCNC(=N)N)C(=O)N[C@H](C(=O)N[C@@H](Cc1ccc(O)cc1)C(=O)NC1(C(=O)N[C@@H](Cc2c[nH]cn2)C(=O)N2CCC[C@H]2C(=O)N[C@@H](CC(C)C)C(=O)O)CCCCC1)C(C)C [SEQ ID NO: 12, Sar-Arg-Val-Tyr-cyHex-His-Pro-Leu] (H-[Sar]RVY[Ac6c]HPL-OH) | < 101 | > 3.2 | > 3.16 | < 105 | > 3.2 | > 3.16 | > 1.3 | < 103 | > 0.631 | > 0.6 | < 104 | > 0.631 | – | – | – | –
2 | CNCC(=O)N[C@@H](CCCNC(=N)N)C(=O)N[C@H](C(=O)N[C@@H](Cc1ccc(O)cc1)C(=O)N1CCC[C@H]1C(=O)N[C@@H](Cc1c[nH]cn1)C(=O)N1CCC[C@H]1C(=O)N[C@@H](C)C(=O)O)C(C)C [SEQ ID NO: 1, Sar-Arg-Val-Tyr-Pro-His-Pro-Ala] (H-[Sar]RVYPHPA-OH) | < 101 | > 3.2 | > 3.16 | < 105 | > 3.2 | > 3.16 | > 10000 | – | > 0.631 | > 0.6 | < 104 | > 0.631 | – | – | – | –
3 | CC[C@H](C)[C@@H](C(=O)N[C@@H](Cc1c[nH]cn1)C(=O)N1CCC[C@H]1C(=O)N[C@@H](C)C(=O)O)N(C)C(=O)[C@H](Cc1ccc(O)cc1)NC(=O)[C@@H](NC(=O)[C@H](CCCNC(=N)N)NC(=O)CNC)C(C)C [SEQ ID NO: 58, Sar-Arg-Val-Tyr-NMeIle-His-Pro-Ala] | < 101 | > 3.2 | > 3.16 | < 105 | > 3.2 | > 3.16 | – | – | – | > 0.6 | < 104 | > 0.631 | Inactive | Inactive | – | –
4 | CNCC(=O)N[C@@H](CCCNC(=N)N)C(=O)N[C@H](C(=O)N[C@@H](Cc1ccc(O)cc1)C(=O)NC1(C(=O)N[C@@H](Cc2c[nH]cn2)C(=O)N2CCC[C@H]2C(=O)N[C@H](C(=O)O)[C@@H](C)O)CCCC1)C(C)C [SEQ ID NO: 21, Sar-Arg-Val-Tyr-cyPen-His-Pro-Thr] (H-[Sar]RVY[Ac5c]HPT-OH) | < 101 | > 3.2 | > 3.16 | < 105 | > 3.2 | > 3.16 | > 1.3 | – | > 0.631 | > 0.6 | < 104 | > 0.631 | – | – | – | –
5 | CNCC(=O)N[C@@H](CCCNC(=N)N)C(=O)N[C@H](C(=O)N[C@@H](Cc1ccc(O)cc1)C(=O)NC1(C(=O)N[C@@H](Cc2c[nH]cn2)C(=O)N2CCC[C@H]2C(=O)N[C@@H](Cc2c[nH]c3ccccc23)C(=O)O)CCCCC1)C(C)C [SEQ ID NO: 54, Sar-Arg-Val-Tyr-cyHex-His-Pro-Trp] (H-[Sar]RVY[Ac6c]HPW-OH) | < 101 | > 3.2 | > 3.16 | < 105 | > 3.2 | > 3.16 | > 1.3 | < 103 | > 0.631 | > 0.6 | < 104 | > 0.631 | – | – | – | –
6 | CNCC(=O)N[C@@H](CCCNC(=N)N)C(=O)N[C@H](C(=O)N[C@@H](Cc1ccc(O)cc1)C(=O)NC1(C(=O)N[C@@H](Cc2c[nH]cn2)C(=O)N2CCC[C@H]2C(=O)N[C@H](C(=O)O)C(C)C)CCCCC1)C(C)C [SEQ ID NO: 13, Sar-Arg-Val-Tyr-cyHex-His-Pro-Val] (H-[Sar]RVY[Ac6c]HPV-OH) | 103 | > 3.2 | > 3.16 | < 105 | > 3.2 | > 3.16 | > 1.3 | – | > 0.631 | > 0.6 | – | > 0.631 | – | – | – | –
7 | CNCC(=O)N[C@@H](CCCNC(=N)N)C(=O)N[C@H](C(=O)N[C@@H](Cc1ccc(O)cc1)C(=O)N1CCC[C@H]1C(=O)N[C@@H](Cc1c[nH]cn1)C(=O)N1CCC[C@H]1C(=O)N[C@H](C(=O)O)C(C)C)C(C)C [SEQ ID NO: 6, Sar-Arg-Val-Tyr-Pro-His-Pro-Val] (H-[Sar]RVYPHPV-OH; N-terminus and C-terminus assumed) | < 101 | – | – | < 105 | – | – | – | < 103 | – | – | < 104 | – | – | – | – | –
8 | CNCC(=O)N[C@@H](CCCNC(=N)N)C(=O)N[C@H](C(=O)N[C@@H](Cc1ccc(O)cc1)C(=O)NC1(C(=O)N[C@@H](Cc2c[nH]cn2)C(=O)N2CCC[C@H]2C(=O)N[C@H](C)C(=O)O)CCCCC1)C(C)C [SEQ ID NO: 57, Sar-Arg-Val-Tyr-cyHex-His-Pro-D-Ala] | < 101 | > 3.2 | > 3.16 | < 105 | > 3.2 | > 3.16 | – | – | – | – | – | – | Inactive | Inactive | Inactive | Inactive
9 | CC[C@H](C)[C@H](NC(=O)[C@@H]1CCCN1C(=O)[C@H](Cc1c[nH]cn1)NC(=O)C1(NC(=O)[C@H](Cc2ccc(O)cc2)NC(=O)[C@@H](NC(=O)[C@H](CCCNC(=N)N)NC(=O)CNC)C(C)C)CCCC1)C(=O)O [SEQ ID NO: 18, Sar-Arg-Val-Tyr-cyPen-His-Pro-Ile] (H-[Sar]RVY[Ac5c]HPI-OH) | < 101 | – | – | < 105 | – | – | – | < 103 | – | – | < 104 | – | – | – | – | –
10 | CNCC(=O)N[C@@H](CCCNC(=N)N)C(=O)N[C@H](C(=O)N[C@@H](Cc1ccc(O)cc1)C(=O)NC1(C(=O)N[C@@H](Cc2c[nH]cn2)C(=O)N2CCC[C@H]2C(=O)N[C@H](C(=O)O)C(C)C)CCCC1)C(C)C [SEQ ID NO: 20, Sar-Arg-Val-Tyr-cyPen-His-Pro-Val] (H-[Sar]RVY[Ac5c]HPV-OH) | < 101 | > 3.2 | > 3.16 | < 105 | > 3.2 | > 3.16 | > 1.3 | < 103 | > 0.631 | > 0.6 | < 104 | > 0.631 | – | – | – | –
11 | CNCC(=O)N[C@@H](CCCNC(=N)N)C(=O)N[C@H](C(=O)N[C@@H](Cc1ccc(O)cc1)C(=O)NC1(C(=O)N[C@@H](Cc2c[nH]cn2)C(=O)N2CCC[C@H]2C(=O)N2CCC[C@H]2C(=O)O)CCCCC1)C(C)C [SEQ ID NO: 39, Sar-Arg-Val-Tyr-cyHex-His-Pro-Pro] (H-[Sar]RVY[Ac6c]HPP-OH) | < 101 | > 3.2 | > 3.16 | < 105 | > 3.2 | > 3.16 | > 1.3 | < 103 | > 0.631 | > 0.6 | < 104 | > 0.631 | – | – | – | –
